Assay [1] has as its target human emopamil binding protein and human 7-dehydrocholesterol reductase co-expressing cell membrane (Homo sapiens (Human), UniProt Q15125). Kind of assay: hEBP-DHCR7 radioligand filtration binding assay with [3H]-Compound 118A*. Conditions: radioligand [3H]-Compound 118A*; HEK293 membrane co-expressing hEBP and DHCR7. A digest of the protocol:
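HEK293 membranes transiently co-expressing hEBP and hDHCR7 (10 μg/well) were incubated with [3H]-Compound 118A* (added at 25 nM) and compounds (8 doses, final 0.06–5000 nM, n=2) for 3 h at 22 °C. Bound radioactivity was read after PEI-treated GF/B filtration. IC50 came from a Hill fit of % inhibition and was converted to Ki.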

For assay [2], the system named is zymostenol accumulation in EpiSC-derived OPCs (EBP). Kind of assay: GC/MS-based sterol profiling, zymostenol accumulation. The note with it: 8 doses from 0.15 nM to 333 nM, read-out: mZymo GCMS EC50. Format: cell-based, mouse. A digest of the protocol: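 EpiSC-derived mouse OPCs plated at 100,000 cells/well in N2B27 without growth factors and treated 24 h. Sterols extracted, silylated with BSTFA and measured by GC/MS (EI, full scan), quantified against cholesterol-d7. Zymostenol normalized to levels after 24 h with 100 nM positive control reference.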

For another assay, the system named is EpiSC-derived OPCs. Briefly: In vitro phenotypic screening of OPCs, MBP high-content imaging. It is filed as cell-based, mouse. Conditions: percentage of MBP+ oligodendrocytes, 3 days, 0.5 nM to 1000 nM, read-out: mOPC EC50. The gist of the method: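 Mouse EpiSC-derived OPCs seeded without growth factors and exposed 3 days at 37° C. to 8-point doses, 1000 nM to 0.5 nM final. Fixed cells stained for MBP and DAPI; high-content imaging gave percentage MBP+ oligodendrocytes, with EC50 from Hill-equation fit.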

Read-outs that look alike come from different tables or passages of the source.

Chain of human emopamil binding protein and human 7-dehydrocholesterol reductase co-expressing cell membrane (Q15125 whole entry): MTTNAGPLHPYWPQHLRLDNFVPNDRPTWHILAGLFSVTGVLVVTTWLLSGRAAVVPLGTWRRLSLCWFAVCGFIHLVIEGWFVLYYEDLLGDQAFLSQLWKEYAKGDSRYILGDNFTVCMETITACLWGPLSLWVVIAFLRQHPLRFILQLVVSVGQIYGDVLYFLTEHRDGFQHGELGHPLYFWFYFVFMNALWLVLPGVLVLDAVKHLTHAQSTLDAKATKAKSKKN

As a reminder, the Ki is the dissociation constant of the complex between target and ligand, obtained from inhibition or displacement. By EC50 is commonly meant the concentration needed to bring the measured effect to its halfway point. Regarding `C[C@H](Cc1ccc(C(F)(F)F)nc1)CN1CCC2(CC1)CS(=O)(=O)C2` (single isomer, unassigned) [Compound 217], the Ki in assay [1] came to 39.6 nM. In addition, the half-maximal effective concentration (EC50) in assay [2] (Mus musculus, 24 h) came out at 8.3 nM; in the assay on EpiSC-derived OPCs (Mus musculus, 72 h) it was 26 nM.
The matching figures for `C[C@@H](Cc1ccc(C(F)(F)F)nc1)CN1CCC2(CC1)CS(=O)(=O)C2` (single isomer, unassigned) [Example 203*]: 51.9 nM, 6.4 nM and 22 nM.
The like results for `C[C@H](CN1CCC2(CC1)CS(=O)(=O)C2)Oc1ccc(C(F)(F)F)nc1` (single isomer, unassigned) [Example 207B*] were, in that order, 65.3 nM, 9.8 nM and 63 nM.
On to `C[C@@H](Cc1ccc([C@H]2CC[C@](O)(C(F)(F)F)CC2)c(Cl)c1)CN1CCC2(C1)CS(=O)(=O)C2` (stereo in doubt) [116A*, 6-((S)-3-(3-Chloro-4-((1s,4R)-4-hydroxy-4-(trifluoromethyl)cyclohexyl)phenyl)-2-methylpropyl)-2-thia-6-azaspiro[3.4]octane 2,2-dioxide, 6-((R)-3-(3-chloro-4-((1s,4S)-4-hydroxy-4-(trifluoromethyl)cyclohexyl)phenyl)-2-methylpropyl)-2-thia-6-azaspiro[3.4]octane 2,2-dioxide], for which, in assay [1], affinity was put at a Ki of 10.5 nM. Further, the results for the EC50 (in assay [2] (24 hours); in the assay on EpiSC-derived OPCs) were 0.49 nM and 1.6 nM, respectively.
The matching figures for `C[C@H](Cc1ccc([C@H]2CC[C@](O)(C(F)(F)F)CC2)c(Cl)c1)CN1CCC2(C1)CS(=O)(=O)C2` (stereo in doubt) [116B*, 6-((S)-3-(3-Chloro-4-((1s,4S)-4-hydroxy-4-(trifluoromethyl)cyclohexyl)phenyl)-2-methylpropyl)-2-thia-6-azaspiro[3.4]octane 2,2-dioxide, and 6-((R)-3-(3-chloro-4-((1r,4R)-4-hydroxy-4-(trifluoromethyl)cyclohexyl)phenyl)-2-methylpropyl)-2-thia-6-azaspiro[3.4]octane 2,2-dioxide]: 9.31 nM, 0.81 nM and 2 nM.
In the case of `O=S1(=O)CC2(CCN(CCOc3ccc([C@H]4CC[C@H](C(F)(F)F)CC4)nc3)CC2)C1` [247A*, 7-(2-((6-((trans)-4-(Trifluoromethyl)cyclohexyl)pyridin-3-yl)oxy)ethyl)-2-thia-7-azaspiro[3.5]nonane 2,2-dioxide], the affinity in assay [1], expressed as Ki, was 5.72 nM. Further, the EC50 in assay [2] (Mus musculus, 24 h) stood at 3.16 nM; with EpiSC-derived OPCs (Mus musculus, 72 h), 22.8 nM.
The like results for `CCC(C)(C)c1ccc(CC(C)CN2CCC3(CCS(=O)(=O)C3)C2)cc1` (stereo not drawn) [Compound 106] were, in that order, 8.38 nM, 8.5 nM and 47 nM.
The like results for `CC(C)(CN1CCC2(C1)CS(=O)(=O)C2)Oc1ccc(C(F)(F)F)cc1` [Compound 120, 6-(2-Methyl-2-(4-(trifluoromethyl)phenoxy)propyl)-2-thia-6-azaspiro[3.4]octane 2,2-dioxide] were, in that order, 17.7 nM, 4 nM and 6.4 nM.
`O=S1(=O)CC2(CCN(CCCc3ccc(OC(F)(F)F)cc3)CC2)C1` [Compound 213, 7-(3-(4-(Trifluoromethoxy)phenyl)propyl)-2-thia-7-azaspiro[3.5]nonane 2,2-dioxide] showed a Ki in assay [1] of 12 nM. Also, the EC50 in assay [2] (Mus musculus, 24 h) turned out to be 5 nM; in the assay on EpiSC-derived OPCs (Mus musculus, 72 h), 4.7 nM.
Molecule `O=S1(=O)CCC2(CC1)CN(CCOc1ccc(F)c(F)c1)C2` [Compound 214, 2-(2-(3,4-Difluorophenoxy)ethyl)-7-thia-2-azaspiro[3.5]nonane 7,7-dioxide] had a Ki in assay [1] of 40.8 nM. Besides, the EC50 came to 15 nM in assay [2] (Mus musculus, 24 h) and 50.4 nM in the assay with EpiSC-derived OPCs (Mus musculus, 72 h).
In turn, `O=S1(=O)CC2(CCN(CCOc3ccc(OC(F)(F)F)cc3)CC2)C1` [Compound 218, 7-(2-(4-(Trifluoromethoxy)phenoxy)ethyl)-2-thia-7-azaspiro[3.5]nonane 2,2-dioxide] gave a Ki in assay [1] of 6.54 nM. Moreover, the concentration giving a half-maximal response (EC50) in assay [2] (Mus musculus, 24 h) turned out to be 0.93 nM; in the assay with EpiSC-derived OPCs (Mus musculus, 72 h), 2.5 nM.
With `O=S1(=O)CCC2(CC1)CN(CCOc1ccc(F)c(Cl)c1)C2` [Compound 219, 2-(2-(3-Chloro-4-fluorophenoxy)ethyl)-7-thia-2-azaspiro[3.5]nonane 7,7-dioxide], the affinity in assay [1], expressed as Ki, was 22.1 nM. The EC50 in assay [2] (Mus musculus, 24 h) stood at 6.9 nM; in the assay on EpiSC-derived OPCs (Mus musculus, 72 h), 22.2 nM.
For `O=S1(=O)CC2(CCN(CC3(Oc4ccc(C(F)(F)F)cc4)CCC3)CC2)C1` [Compound 222, 7-((1-(4-(Trifluoromethyl)phenoxy)cyclobutyl)methyl)-2-thia-7-azaspiro[3.5]nonane 2,2-dioxide], in assay [1], affinity was put at a Ki of 3.7 nM. Besides, the EC50 was determined as 3.7 nM in assay [2] (Mus musculus, 24 h) and 16 nM with EpiSC-derived OPCs (Mus musculus, 72 h).
`O=S1(=O)CCC2(CC1)CN(CCCc1ccc(C(F)(F)F)nc1)C2` [Compound 223, 2-(3-(6-(Trifluoromethyl)pyridin-3-yl)propyl)-7-thia-2-azaspiro[3.5]nonane 7,7-dioxide]: the affinity in assay [1], expressed as Ki, was 555 nM. In addition, the half-maximal effective concentration (EC50) stood at 120 nM in assay [2] (Mus musculus, 24 h) and 355 nM with EpiSC-derived OPCs (Mus musculus, 72 h).
The like results for `O=S1(=O)CC2(CCN(CCCc3ccc(F)c(F)c3)CC2)C1` [Compound 225, 7-(3-(3,4-Difluorophenyl)propyl)-2-thia-7-azaspiro[3.5]nonane 2,2-dioxide] were, in that order, 24.3 nM, 12.2 nM and 23.5 nM.
`O=S1(=O)CC2(CCN(CCOc3ccc(C(F)(F)F)cc3)CC2)C1` [Compound 226, 7-(2-(4-(Trifluoromethyl)phenoxy)ethyl)-2-thia-7-azaspiro[3.5]nonane 2,2-dioxide] returned a Ki in assay [1] of 9.29 nM. The EC50 stood at 0.88 nM in assay [2] (Mus musculus, 24 h) and 2.2 nM in the assay on EpiSC-derived OPCs (Mus musculus, 72 h).
In assay [1], `O=S1(=O)CC2(CCN(CCOc3ccc(C(F)(F)F)c(F)c3)CC2)C1` [Compound 228, 7-(2-(3-Fluoro-4-(trifluoromethyl)phenoxy)ethyl)-2-thia-7-azaspiro[3.5]nonane 2,2-dioxide] yielded a Ki of 7.95 nM. Besides, the EC50 turned out to be 0.94 nM in assay [2] (Mus musculus, 24 h) and 2.8 nM with EpiSC-derived OPCs (Mus musculus, 72 h).
The matching figures for `O=S1(=O)CC2(CCN(CCOc3ccc(F)cn3)CC2)C1` [Compound 229, 7-(2-((5-Fluoropyridin-2-yl)oxy)ethyl)-2-thia-7-azaspiro[3.5]nonane 2,2-dioxide]: 110 nM, 34 nM and 135 nM.
`CC(C)(CN1CCC2(CC1)CS(=O)(=O)C2)Oc1ccc(Cl)c(F)c1` [Compound 231, 7-(2-(4-Chloro-3-fluorophenoxy)-2-methylpropyl)-2-thia-7-azaspiro[3.5]nonane 2,2-dioxide] displayed a Ki in assay [1] of 7.31 nM. Besides, the half-maximal effective concentration (EC50) came out at 0.32 nM in assay [2] (Mus musculus, 24 h) and 0.9 nM in the assay with EpiSC-derived OPCs (Mus musculus, 72 h).
The like results for `CC(C)(CN1CCC2(CC1)CS(=O)(=O)C2)Oc1cccc(C(F)(F)F)c1` [Compound 233, 7-(2-Methyl-2-(3-(trifluoromethyl)phenoxy)propyl)-2-thia-7-azaspiro[3.5]nonane 2,2-dioxide] were, in that order, 13.2 nM, 1.5 nM and 5.7 nM.
The matching figures for `O=S1(=O)CC2(CCN(CCOc3ccnc(C(F)(F)F)c3)CC2)C1` [Compound 236, 7-(2-((2-(Trifluoromethyl)pyridin-4-yl)oxy)ethyl)-2-thia-7-azaspiro[3.5]nonane 2,2-dioxide]: 17 nM, 2.64 nM and 3.89 nM.
The like results for `O=S1(=O)CC2(CCN(CCOc3ccc(-c4ccc(C(F)(F)F)nc4)cc3)CC2)C1` [Compound 238, 7-(2-(4-(6-(Trifluoromethyl)pyridin-3-yl)phenoxy)ethyl)-2-thia-7-azaspiro[3.5]nonane 2,2-dioxide] were, in that order, 14.1 nM, 2.89 nM and 13.7 nM.
In assay [1], `CC(C)n1nc(C(F)(F)F)cc1OCCN1CCC2(CC1)CS(=O)(=O)C2` [Compound 239] came in with a Ki of 41.9 nM. In addition, the EC50 in assay [2] (Mus musculus, 24 h) was determined as 39.8 nM; in the assay with EpiSC-derived OPCs (Mus musculus, 72 h), 374 nM.
`O=S1(=O)CC2(CCN(CCOc3cnc(C4CCCCC4)c(Cl)c3)CC2)C1` [Compound 240, 7-[2-[(5-Chloro-6-cyclohexyl-3-pyridyl)oxy]ethyl]-26-thia-7-azaspiro[3.5]nonane 2,2-dioxide] showed an inhibition constant (Ki) in assay [1] of 1.96 nM. In addition, the EC50 in assay [2] (Mus musculus, 24 h) was found to be 75.5 nM; with EpiSC-derived OPCs (Mus musculus, 72 h) it was 346 nM.
In the case of `O=S1(=O)CC2(CCN(CCOc3cnc([C@H]4CC[C@H](C(F)(F)F)CC4)c(Cl)c3)CC2)C1` [Compound 246, 7-(2-((5-Chloro-6-((trans)-4-(trifluoromethyl)cyclohexyl)pyridin-3-yl)oxy)ethyl)-2-thia-7-azaspiro[3.5]nonane 2,2-dioxide], the affinity in assay [1] corresponds to a Ki of 12.2 nM. Further, the EC50 in assay [2] (Mus musculus, 24 h) was 1.26 nM; with EpiSC-derived OPCs (Mus musculus, 72 h), 2.62 nM.

These data come from US20240400579A1, “SPIROCYCLIC MODULATORS OF CHOLESTEROL BIOSYNTHESIS AND THEIR USE FOR PROMOTING REMYELINATION” (GENENTECH, INC., priority 2021, published 2024).
